{"source": "patent US10775388B2", "about": "“Methods of using antibodies to determine periostin levels in a sample” (MEDIMMUNE, LLC, priority 2014, dated 2020)", "key": {"[1]": {"system": "EPIAIRWAY™ tissue (normal and asthmatic lung epithelium)", "test": "Periostin levels in IL-13 stimulated […] tissue models (sandwich ELISA)", "type": "cell-based, human", "details": "stimulated with 50 ng/mL IL-13 for 48 hours", "procedure": "Biotin/streptavidin-HRP-based sandwich ELISA assays were performed as follows. Specific details such as anti-periostin capture antibodies, samples to be tested, and anti-periostin detection antibodies are noted for specific experiments in the various examples Variations to standard ELISA protocols are well known to those of ordinary skill in the art, and can be used according to this disclosure.\nHigh binding ELISA plates were coated with an anti-periostin capture mAb, e.g., 4B4.B11 (2 μg/mL in PBS; 100 μL/well), and were incubated overnight at 4° C. The plates were washed three times with 200 μL/well wash buffer (PBS/0.1% TWEEN-20®). Following washing, 200 μL/well block buffer (e.g., PBS/50× dilution of reagent diluent concentrate (available from R & D Systems)/0.05% TWEEN-20® or PBS/3% nonfat dry milk/0.1% TWEEN-20®) was added to each well, and the plates were incubated for one hour at room temperature. The plates were then washed three times as noted above.\nFor the standard curve, periostin standards (e.g., standards available from R & D Systems Cat #3548-F2) were serially diluted in block buffer, e.g., 2-fold dilutions from 50 ng/mL to 0.78 ng/mL. […] Finally the plates were read on a spectrophotometer at λ=450 nm. […]"}, "[2]": {"system": "patients with uncontrolled asthma", "details": "above-median vs below-median baseline serum periostin; cited from earlier work"}, "[3]": {"system": "adults with uncontrolled, severe asthma", "test": "Phase 2b study CD-RI-CAT-354-1049 of SC tralokinumab, subgroup analysis by baseline serum periostin", "type": "in vivo, human", "details": "for Asthma exacerbation rate reduction: 300 mg Q2W vs placebo", "procedure": "A 5-week screening/run-in period (Week −5 to −1 [Day −1]) preceded randomisation. Starting at Week −4 (Day −28), patients received a fixed-dose combination product of fluticasone/salmeterol, either as an MDI (230 μg/21 μg) at a dose of 2 inhalations twice per day or as a DPI (500 μg/50 μg) at a dose of one inhalation twice per day. If the patient was also taking additional asthma controller medications (including leukotriene modifiers, theophylline, cromones, a secondary ICS, or oral prednisolone 20 mg/day or equivalent OCS), then these medications were to be continued at a stable dose during the screening/run-in and treatment period.\nPatients were randomised in a 1:1 ratio to one of 2 cohorts (Cohort 1 or Cohort 2)."}, "[4]": {"details": "post hoc, 300 mg Q2W, FEV1 reversibility ≥12% and serum periostin < median"}, "[5]": {"details": "post hoc, 300 mg Q2W, FEV1 reversibility ≥12% and serum periostin ≥ median"}, "[6]": {"details": "post hoc, reversible patients regardless of serum periostin level"}}, "note": "Where “and” joins values, the source holds several entries; their conditions need not be identical. Equal entries are not always repeated."}
{"substance": "IL-13: 114 amino acid cytokine used to stimulate periostin expression", "values": [{"measurement": "periostin levels", "setting": "[1]", "result": "increase"}]}
{"substance": "lebrikizumab: anti-human-IL-13 antibody (SEQ ID NOs 6-7), Roche/Genentech", "values": [{"measurement": "AER reduction", "setting": "[2]", "result": "greater AER reduction"}, {"measurement": "increases in FEV1", "setting": "[2]", "result": "larger increases"}]}
{"substance": "tralokinumab: anti-IL-13 monoclonal antibody (SEQ ID NOs 8-9)", "values": [{"measurement": "percent change from baseline in pre-bronchodilator FEV1 over time", "setting": "[3]; 300 mg Q2/4W, through to Week 53, periostin < median", "result": "No significant increases"}, {"measurement": "Asthma exacerbation rate reduction", "setting": "[3]; Week 53, ITT (regardless of serum periostin level)", "result": 7, "unit": "%"}, {"measurement": "Asthma exacerbation rate reduction", "setting": "[3]; Week 53, baseline serum Periostin ≥ Median", "result": 25, "unit": "%"}, {"measurement": "Change from baseline in ACQ-6", "setting": "[3]; 300 mg Q2W, ITT", "result": "−0.18"}, {"measurement": "Change from baseline in AQLQ", "setting": "[3]; 300 mg Q2W, ITT", "result": 0.21}, {"measurement": "Change from baseline in ACQ-6", "setting": "[3]; 300 mg Q2W, Periostin < Median", "result": "−0.02"}, {"measurement": "Change from baseline in AQLQ", "setting": "[3]; 300 mg Q2W, Periostin < Median", "result": 0.21}, {"measurement": "Change from baseline in ACQ-6", "setting": "[3]; 300 mg Q2W, Periostin ≥ Median", "result": "−0.23"}, {"measurement": "Change from baseline in AQLQ", "setting": "[3]; 300 mg Q2W, Periostin ≥ Median", "result": 0.22}, {"measurement": "Percent change from baseline in FEV1", "setting": "[3]; 300 mg Q2W, Week 53, ITT (regardless of serum periostin level)", "result": 7.1, "unit": "%"}, {"measurement": "Percent change from baseline in FEV1", "setting": "[3]; 300 mg Q2W, Week 53, Periostin < Median", "result": 7.06, "unit": "%"}, {"measurement": "Percent change from baseline in FEV1", "setting": "[3]; 300 mg Q2W, Week 53, Periostin ≥ Median", "result": "6.75% and 6.8%"}, {"measurement": "percent change from baseline in pre-bronchodilator FEV1 over time", "setting": "[3]; 300 mg Q2W, through to Week 53, periostin < median", "result": "No significant increases"}, {"measurement": "percent change from baseline in pre-bronchodilator FEV1 over time", "setting": "[3]; 300 mg Q2W, through to Week 53, periostin >= median", "result": "Relative increases"}, {"measurement": "reduction in serum periostin levels", "setting": "[3]; baseline serum periostin above the median compared to below the median", "result": "Greater reduction"}, {"measurement": "increase in FEV1", "setting": "[3]; [4]", "result": 7.62, "unit": "%"}, {"measurement": "reduction in AER", "setting": "[3]; [4]", "result": 4, "unit": "%"}, {"measurement": "percentage increase from baseline in pre-bronchodilator FEV1 compared to placebo", "setting": "[3]; [5]", "result": 13.85, "unit": "%"}, {"measurement": "reduction in AER", "setting": "[3]; [5]", "result": 54, "unit": "%"}, {"measurement": "AER reduction", "setting": "[3]; [6]", "result": 34, "unit": "%"}, {"measurement": "increase in FEV1", "setting": "[3]; [6]", "result": 11.07, "unit": "%"}, {"measurement": "serum periostin levels", "setting": "[3]; soon after the first dose and for the duration of the study", "result": "substantially reduced"}]}
